Laboratory results: patent publication US20260157376A1, “METHOD OF CONTROLLING, LIMITING OR PREVENTING OOMYCETES” (priority 2022, published 2026)

System: Pythium ultimum
Assay: In vitro growth inhibition of Pythium ultimum in PDB nutrient broth, 96-well microtiter plate
Format: cell-based
Conditions: 24° C., 48 hours

N.N.O=[PH](O)O [Diammonium phosphonate]
Observed efficacy (%) (500 ppm): 50% | Observed efficacy (%) (1000 ppm): 70%

COCC(=O)N(c1c(C)cccc1C)[C@H](C)C(=O)OC [Mefenoxam, reference compound]
Observed efficacy (%) (0.007 ppm): 0% | Observed efficacy (%) (0.02 ppm): 20% | Observed efficacy (%) (0.06 ppm): 50%

Inpyrfluxam [reference compound]
Observed efficacy (%) (20 ppm): 0%

Monopotassium phosphite
Observed efficacy (%) (125 ppm): 20% | Observed efficacy (%) (250 ppm): 20% | Observed efficacy (%) (500 ppm): 20%
